Assay: Clinical trials, longer-term ximelagatran treatment: ALAT elevation in patients
Format: in vivo, human
From the text: Alanine aminotransferase (ALAT) is an enzyme mostly expressed in the liver (EC 2.6.1.2). It is also called serum glutamate pyruvate transaminase (SGPT) or alanine transaminase (ALT). This enzyme is release into the plasma by liver cell death, which is a normal event. However, when liver cell death increases, ALAT levels rise above the normal range. The spillover of this enzyme into blood is routinely measured as a marker of abnormal liver-cell damage. For example, alcoholic or viral hepatitis will increase ALAT levels, as will severe congestive heart failure. ALAT is also markedly raised in hepatitis and other acute liver damage. An elevated ALAT in the presence of normal levels of plasma alkaline phosphatase helps distinguish liver disease caused by liver-cell damage from diseases caused by problems in biliary ducts. Elevations of ALAT are normally measured in multiples of the upper limit of normal (ULN), with a reference range of 15-45 U/L in most laboratories. In 1987, in a study of 19,877 healthy Air Force recruits, only 99 (0.5%) had confirmed ALAT elevations (as reviewed in Green & Flamm (2002) Gastroenterology 123:1367-1384).
Subject to the future regulatory approval of ximelagatran, regular liver function testing (LFT) using an appropriate algorithm may be required if ximelagatran is used for treatment periods exceeding a month. Studies are currently ongoing to try and establish the mechanism of the ALAT elevations, and their hepatic and overall clinical significance.

CCOC(=O)CN[C@@H](C(=O)N1CC[C@H]1C(=O)NCc1ccc(/C(N)=N\O)cc1)C1CCCCC1 [ximelagatran, EtOOC—CH2—(R)Cgl-Aze-Pab-OH]
symptoms accompanying ALAT increases (longer-term treatment): mainly asymptomatic
patients exhibiting levels of alanine aminotransferase (ALAT) 3-fold or more above the upper limit of normal (≧3×ULN) (longer-term treatment (>35 days), 1.2% in the comparator groups): 7.9%
reversibility of ALAT increases (regardless of whether treatment was continued or discontinued): reversible in most patients
time of occurrence of the increase in ALAT values (usually, from start of treatment): ≤ 6 months

Reference: patent US20090227559A1, “SNPS IN THE APOB GENE AND SUSCEPTIBILITY TO INCREASED LEVELS OF ALAT FOLLOWING XIMELAGATRAN ADMINISTRATION” (AstraZeneca AB, priority 2005, published 2009)
